Measurements as given in the supplement of paper PMC8967900.

Experiments:
Experiment in all cases: selective drug sensitivity score (sDSS, relative to normal bone marrow) (sDSS (score)); higher = more potent and effective on the cell line relative to normal bone marrow cells
Conditions in all cases: 72 h
[1] = tested on: P30-OHKUBO
[2] = tested on: DND-41
[3] = tested on: CCRF-HSB2
[4] = tested on: KASUMI-9
[5] = tested on: SUP-B15
[6] = tested on: TANOUE
[7] = tested on: ALL-PO
[8] = tested on: MHH-CALL-3
[9] = tested on: TMD5
[10] = tested on: REH
[11] = tested on: RCH-ACV
[12] = tested on: SEM cells
[13] = tested on: MOLT-4
[14] = tested on: COG-LL-394h
[15] = tested on: NALM-16
[16] = tested on: COG-LL-402h
[17] = tested on: RPMI-8402
[18] = tested on: COG-LL-355h
[19] = tested on: PEER
[20] = tested on: MOLT-16
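Further: ALL cell lines in 384-well plates, five doses spanning 10,000-fold, each plate scaled between vehicle and 100 µmol/L benzalkonium chloride controls, sDSS an adapted area-under-curve metric.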

SMILES	selective drug sensitivity score [1]	selective drug sensitivity score [2]	selective drug sensitivity score [3]	selective drug sensitivity score [4]	selective drug sensitivity score [5]	selective drug sensitivity score [6]	selective drug sensitivity score [7]	selective drug sensitivity score [8]	selective drug sensitivity score [9]	selective drug sensitivity score [10]	selective drug sensitivity score [11]	selective drug sensitivity score [12]	selective drug sensitivity score [13]	selective drug sensitivity score [14]	selective drug sensitivity score [15]	selective drug sensitivity score [16]	selective drug sensitivity score [17]	selective drug sensitivity score [18]	selective drug sensitivity score [19]	selective drug sensitivity score [20]
CC[C@@H]1C(=O)N(C)c2cnc(Nc3ccc(C(=O)N[C@H]4CC[C@H](N5CCN(CC6CC6)CC5)CC4)cc3OC)nc2N1C(C)C [Volasertib] (top concentration 1000 nM)	13.1	11.2	12.4	18.5	19.2	-7	16.1	2.9	10.1	12.8	13.9	21.4	11.3	7.7	11.3	11	20.8	6.4	18.7	12.7
CN(C)Cc1ccc(S(=O)(=O)n2ccc(/C=C/C(=O)NO)c2)cc1 [Resminostat] (top concentration 10000 nM)	7.94	1.74	2.24	10.2	9.74	-4.16	6.34	11.7	0.34	2.04	12.2	8.64	1.24	2.04	0.24	10.2	7.24	6.04	8.24	4.54
COc1cc(OC)c(/C=C/S(=O)(=O)Cc2ccc(OC)c(NCC(=O)O)c2)c(OC)c1 [Rigosertib] (top concentration 10000 nM)	16.9	9.06	14.6	18.3	14.6	-5.04	11.2	13.4	8.16	14	17.3	17.3	15.9	6.76	12.8	14.2	13.3	4.16	15.9	18.8
Cc1c(-c2ccc(N3CCc4cccc(C(=O)Nc5nc6ccccc6s5)c4C3)nc2C(=O)O)cnn1CC12CC3CC(CC(C3)C1)C2 (top concentration 1000 nM)	-2.26	19.7	10.2	-2.26	9.34	-2.26	-1.86	9.54	-2.26	-2.26	-1.76	-1.66	23.6	7.94	-2.26	16.5	13	18.2	19.3	0.54
Cc1cc(Nc2cc(CN3CCOCC3)c3nc(C)c(Cc4ccc(Cl)cc4F)n3n2)n[nH]1 [Gandotinib] (top concentration 10000 nM)	6.28	7.28	5.98	9.88	7.78	-7.72	4.98	1.18	-0.82	4.98	8.88	10.5	4.88	0.88	-1.52	5.28	0.78	2.18	8.68	5.68
O=C(c1cccc(Cl)c1F)N1CCN(Cc2cccc(Nc3nccs3)n2)CC1 [MK-8745] (top concentration 10000 nM)	9.1	5.5	14.1	13.2	18.3	-0.8	9.9	7.1	9.4	11.6	9.7	18.3	11.8	5	12.4	14.1	9.4	2.7	9.8	12.2
Nc1nccc(-c2c(-c3ccc(F)cc3)ncn2C2CCCCC2)n1 (top concentration 10000 nM)	4.3	3.3	3.4	1.7	2.4	0	3	0.1	1.5	0.8	13.5	1.2	0.4	0	0.9	0.7	0.6	0	1.4	2.6
COc1nc(N)nc2c1ncn2[C@@H]1O[C@H](CO)[C@@H](O)[C@@H]1O [Nelarabine] (top concentration 10000 nM)	-1.82	8.98	1.88	1.98	5.78	-10.2	0.08	-3.72	-10.2	-6.32	1.98	-10.2	-0.72	-9.72	-9.52	-2.32	2.68	-6.22	-5.52	-7.22
Cc1ccc(NC(=O)c2ccc(CN3CCN(C)CC3)cc2)cc1Nc1nc(-c2cccnc2)cs1 [Masitinib] (top concentration 10000 nM)	1.22	-0.28	6.02	1.22	7.52	-4.38	-1.28	-4.38	1.82	-0.98	0.02	0.22	-0.38	3.32	-4.38	-1.48	1.82	-1.78	6.62	3.42
CNC(=O)c1ccccc1Nc1cc(Nc2ccc(N3CCOCC3)cc2OC)ncc1C(F)(F)F [VS-4718] (top concentration 10000 nM)	0.4	-0.9	3.5	2.1	-3	-5	14	-5	6.8	-1.1	0.8	7.9	1.9	-0.4	0	-4.5	8.8	1.3	3.6	6.1
